Measurements taken from patent US20260184707A1, “PHARMACEUTICAL COMPOUNDS FOR THE TREATMENT OF COMPLEMENT MEDIATED DISORDERS” (ALEXION PHARMACEUTICALS, INC., priority 2022, published 2026).

The compounds below were run against T1, Human complement C1s enzyme (Homo sapiens, UniProt P09871) (assay: Human C1s enzyme assay). Settings: human complement C1s enzyme 1.16 nM, substrate Z-L-Lys-SBzl, A405; read-out: IC50 (Stars).
T1 construct: purified from human serum, Complement Technology, Inc; purchased Complement Technology, Inc; host or cells: human serum (plasma-derived native protein)
T1 sequence (P09871 438-688 limits assumed): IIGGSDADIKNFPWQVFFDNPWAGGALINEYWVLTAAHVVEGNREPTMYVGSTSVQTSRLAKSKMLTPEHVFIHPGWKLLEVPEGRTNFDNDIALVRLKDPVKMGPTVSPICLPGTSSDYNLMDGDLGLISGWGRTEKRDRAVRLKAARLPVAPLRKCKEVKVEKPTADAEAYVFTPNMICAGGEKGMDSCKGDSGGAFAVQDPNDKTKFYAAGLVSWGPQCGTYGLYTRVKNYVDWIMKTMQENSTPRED
T1 sequence (P09871 16-437 partner limits assumed): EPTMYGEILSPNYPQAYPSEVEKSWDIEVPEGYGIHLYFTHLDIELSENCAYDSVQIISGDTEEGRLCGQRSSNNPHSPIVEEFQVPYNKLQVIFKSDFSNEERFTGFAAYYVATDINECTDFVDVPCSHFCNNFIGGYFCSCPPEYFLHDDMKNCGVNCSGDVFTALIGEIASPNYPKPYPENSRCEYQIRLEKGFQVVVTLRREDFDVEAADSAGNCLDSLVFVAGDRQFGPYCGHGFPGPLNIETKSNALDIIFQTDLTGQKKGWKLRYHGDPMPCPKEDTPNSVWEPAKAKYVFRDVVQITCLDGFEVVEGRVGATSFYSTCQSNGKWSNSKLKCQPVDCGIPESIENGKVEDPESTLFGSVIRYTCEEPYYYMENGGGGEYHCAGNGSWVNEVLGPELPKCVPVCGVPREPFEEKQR
Format: biochemical
Summary of the method: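 Serum-purified human C1s (1.16 nM final) preincubated 5 min at room temperature with compound in 50 mM Tris, 1 M NaCl, pH 7.5. Z-L-Lys-SBzl and DTNB added at 100 μM each; A405 recorded every 30 s. IC50 from nonlinear regression of reaction rates versus compound concentration.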

IC50	SMILES
100 to 1000 nM	COCc1ncc(N[C@H](C)c2ccc3oc4ccccc4c3c2)c(=O)n1CC(=O)NCc1cc2cnccc2[nH]1 [Compound 365, (R)—N-((1H-pyrrolo[3,2-c]pyridine-2-yl)methyl)-2-(5-((1-(dibenzo[b,d]furan-2-yl)ethyl)amino)-2-(methoxymethyl)-6-oxopyrimidin-1(6H)-yl)acetamide]
< 100 nM	C[C@H](Nc1cnc(-c2ccc(S(F)(F)(F)(F)F)cc2)n(CC(=O)NCc2cc3cnccc3[nH]2)c1=O)c1ccc2oc3ccccc3c2c1 [Compound 296, (S)-N-((1H-pyrrolo[3,2-c]pyridin-2-yl)methyl)-2-(5-((1-(dibenzo[b,d]furan-2-yl)ethyl)-amino)-6-oxo-2-(4-(penta-fluoro-lambda6-sulfaneyl)-phenyl)pyrimidin-1(6H)-yl)-acetamide]
< 100 nM	C[C@H](Nc1cnc(-c2ccccc2F)n(CC(=O)NCc2cc3cnccc3[nH]2)c1=O)c1ccc2c(c1)oc1ccccc12 [Compound 309, (S)-N-((1H-pyrrolo[3,2-c]pyridin-2-yl)methyl)-2-(5-((1-(dibenzo[b,d]furan-3-yl)ethyl)-amino)-2-(2-fluorophenyl)-6-oxopyrimidin-1(6H)-yl)acet-amide]
100 to 1000 nM	CC(C)c1ncc(N[C@H](C)c2ccc3oc4ccccc4c3c2)c(=O)n1CC(=O)NCc1cc2cnccc2[nH]1 [Compound 341, (R)—N-((1H-pyrrolo[3,2-c]pyridine-2-yl)methyl)-2-(5-((1-(dibenzo[b,d]furan-2-yl)ethyl)amino)-2-isopropyl-6-oxopyrimidin-1(6H)-yl)acetamide]
< 100 nM	O=C(Cn1c(-c2ccccc2)ncc(NCCNC(=O)c2ccc3oc4ccccc4c3c2)c1=O)NCc1cc2cnccc2[nH]1 [Compound 35, N-(2-((1-(2-(((1H-pyrrolo[3,2-c]pyridin-2-yl)methyl)amino)-2-oxoethyl)-6-oxo-2-phenyl-1,6-dihydropyrimidin-5-yl)amino)ethyl)dibenzo[b,d]furan-2-carboxamide]
< 100 nM	C[C@H](Nc1cnc(-c2ccccc2)n(CC(=O)NCc2cc3cnccc3[nH]2)c1=O)c1ccc(Oc2ccccc2)cc1 [Compound 62, (S)-N-((1H-pyrrolo[3,2-c]pyr-idin-2-yl)methyl)-2-(6-oxo-5-((1-(4-phenoxyphenyl)ethyl)-amino)-2-phenylpyrimidin-1(6H)-yl)acetamide]
< 100 nM	C[C@H](Nc1cnc(-c2ccccc2)n(CC(=O)NCc2cc3cnccc3[nH]2)c1=O)c1ccc2oc3ccccc3c2c1 [Compound 127, (S)—N-((1H-pyrrolo[3,2-c]pyridine-2-yl)methyl)-2-(5-((1-(dibenzo[b,d]furan-2-yl)ethyl)amino)-6-oxo-2-phenylpyrimidin-1(6H)-yl)acetamide]
< 100 nM	C[C@@H](Nc1cnc(-c2ccc(S(C)(=O)=O)cc2)n(CC(=O)NCc2cc3cnccc3[nH]2)c1=O)c1ccc2oc3ccccc3c2c1 [Compound 230, (R)-N-((1H-pyrrolo[3,2-c]pyr-idin-2-yl)methyl)-2-(5-((1-(dibenzo[b,d]furan-2-yl)ethyl)-amino)-2-(4-(methylsulfonyl)-phenyl)-6-oxopyrimidin-1(6H)-yl)acetamide]
< 100 nM	O=C(Cn1c(-c2ccccc2)ncc(NC(=O)c2ccc3oc4ccccc4c3c2)c1=O)NCc1cc2cnccc2[nH]1 [Compound 97, N-(1-(2-(((1H-pyrrolo[3,2-c]pyridin-2-yl)methyl)amino)-2-oxoethyl)-6-oxo-2-phenyl-1,6-dihydropyrimidin-5-yl)dibenzo [b,d]furan-2-carboxamide]

The remaining lines, values behind:

SMILES	IC50
O=C(Cn1c(-c2ccccc2)ncc(NCCCCc2ccccc2)c1=O)NCc1cc2cnccc2[nH]1 [Compound 2, N-((1H-pyrrolo[3,2-c]pyridin-2-yl)methyl)-2-(6-oxo-2-phen-yl-5-((4-phenylbutyl)amino)-pyrimidin-1(6H)-yl)acetamide]	< 100 nM
C[C@@H](Nc1cnc(-c2cscn2)n(CC(=O)NCc2cc3cnccc3[nH]2)c1=O)c1ccc(-c2ccccc2F)cc1 [Compound 446, (R)-N-((1H-pyrrolo[3,2-c]pyridin-2-yl)methyl)-2-(5-((1-(2′-fluoro-[1,1′-biphenyl]-4-yl)ethyl)amino)-6-oxo-2-(thiazol-4-yl)pyrimidin-1(6H)-yl)acetamide]	< 100 nM
O=C(Cn1c(-c2ccc(F)c(F)c2)ncc(NC(=O)c2ccc(-c3ccccc3)cc2)c1=O)NCc1cc2cnccc2[nH]1 [Compound 226, N-(1-(2-(((1H-pyrrolo[3,2-c]pyridin-2-yl)methyl)amino)-2-oxoethyl)-2-(3,4-difluorophen-yl)-6-oxo-1,6-dihydropyrimi-din-5-yl)-[1,1′-biphenyl]-4-carboxamide]	< 100 nM
O=C(Cn1c(-c2ccccc2)ncc(NCc2cc(-c3ccccc3)ns2)c1=O)NCc1cc2cnccc2[nH]1 [Compound 458, N-((1H-pyrrolo[3,2-c]pyridin-2-yl)methyl)-2-(6-oxo-2-phen-yl-5-(((3-phenylisothiazol-5-yl)methyl)amino)pyrimidin-1(6H)-yl)acetamide]	< 100 nM
O=C(Cn1c(-c2ccccc2)ncc(NC(=O)CCCOc2ccccc2)c1=O)NCc1cc2cnccc2[nH]1 [Compound 4, N-(1-(2-(((1H-pyrrolo[3,2-c]pyridin-2-yl)methyl)amino)-2-oxoethyl)-6-oxo-2-phenyl-1,6-dihydropyrimidin-5-yl)-4-phen-oxybutanamide]	< 100 nM
O=C(Cn1c(-c2ccccc2)ncc(N2Cc3ccccc3C2)c1=O)NCc1cc2cnccc2[nH]1 [Compound 184, N-((1H-pyrrolo[3,2-c]pyridine-2-yl)methyl)-2-(5-(isoindolin-2-yl)-6-oxo-2-phenylpyrimidin-1(6H)-yl)acetamide]	> 1000 nM
CS(=O)(=O)c1ccc(CCCNc2cnc(-c3ccccc3)n(CC(=O)NCc3cc4cnccc4[nH]3)c2=O)cc1 [Compound 42, N-((1H-pyrrolo[3,2-c]pyridin-2-yl)methyl)-2-(5-((3-(4-(methylsulfonyl)phenyl)propyl)amino)-6-oxo-2-phenylpyrimidin-1(6H)-yl)acetamide]	< 100 nM
C[C@@H](NC(=O)Cn1c(-c2ccccc2)ncc(NCCCc2ccccc2)c1=O)c1cc2cnccc2[nH]1 [Compound 10, (R)-N-(1-(1H-pyrrolo[3,2-c]pyridin-2-yl)ethyl)-2-(6-oxo-2-phenyl-5-((3-phenylpropyl)-amino)pyrimidin-1(6H)-yl)-acetamide]	< 100 nM
COc1ccccc1-c1ccc(CNc2cnc(-c3ccccc3)n(CC(=O)NCc3cc4cnccc4[nH]3)c2=O)cc1 [Compound 257, N-((1H-pyrrolo[3,2-c]pyridin-2-yl)methyl)-2-(5-(((2′-meth-oxy-[1,1′-biphenyl]-4-yl)meth-yl)amino)-6-oxo-2-phenylpyr-imidin-1(6H)-yl)acetamide]	< 100 nM
O=C(Cn1cncc(NC(=O)c2cnc(-c3ccccc3)o2)c1=O)NCc1cc2cnccc2[nH]1 [Compound 405, N-(1-(2-(((1H-pyrrolo[3,2-c]pyridin-2-yl)methyl)amino)-2-oxoethyl)-6-oxo-1,6-dihydro-pyrimidin-5-yl)-2-phenyl-oxazole-5-carboxamide]	< 100 nM
C[C@@H](Nc1cnc(N2CCNCC2)n(CC(=O)NCc2cc3cnccc3[nH]2)c1=O)c1ccc2oc3ccccc3c2c1 [Compound 376, (R)—N-((1H-pyrrolo[3,2-c]pyridine-2-yl)methyl)-2-(5-((1-(dibenzo[b,d]furan-2-yl)ethyl)amino)-6-oxo-2-(piperazin-1-yl)pyrimidin-1(6H)-yl)acetamide]	< 100 nM
Cn1cc(-c2ncc(NCc3ccc4oc5ccccc5c4c3)c(=O)n2CC(=O)NCc2cc3cnccc3[nH]2)cn1 [Compound 287, N-((1H-pyrrolo[3,2-c]pyridin-2-yl)methyl)-2-(5-((dibenzo [b,d]furan-2-ylmethyl)amino)-2-(1-methyl-1H-pyrazol-4-yl)-6-oxopyrimidin-1(6H)-yl)-acetamide]	< 100 nM
CO[C@@H]1CO[C@H]2[C@@H]1OC[C@H]2OCCCNc1cnc(-c2ccccc2)n(CC(=O)NCc2cc3cnccc3[nH]2)c1=O [Compound 95, N-((1H-pyrrolo[3,2-c]pyridine-2-yl)methyl)-2-(5-((3-(((3R,3aR,6R,6aR)-6-methoxyhexahydrofuro[3,2-b]furan-3-yl)oxy)propyl)amino)-6-oxo-2-phenylpyrimidin-1(6H)-yl)acetamide]	< 100 nM
O=C(Cn1c(-c2ccccc2)ncc(NC(=O)CCc2ccccc2)c1=O)NCc1cc2cnccc2[nH]1 [Compound 5, N-(1-(2-(((1H-pyrrolo[3,2-c]pyridin-2-yl)methyl)amino)-2-oxoethyl)-6-oxo-2-phenyl-1,6-dihydropyrimidin-5-yl)-3-phenylpropanamide]	< 100 nM
Cc1c(NCCCc2ccccc2)ccc(-c2ccccc2)c1CC(=O)NCc1cc2cnccc2[nH]1 [Compound 85, N-((1H-pyrrolo[3,2-c]pyridine-2-yl)methyl)-2-(3-methyl-4-((3-phenylpropyl)amino)-[1,1′-biphenyl]-2-yl)acetamide]	> 1000 nM
